Tested on: HeLa-654 cells
Assay: HeLa cell assay: e-GFP fluorescence from exon skipping / cellular delivery, by flow cytometry
Assay type: cell-based
Details: Accuri C6 flow cytometer, signal reflects exon skipping and cellular uptake
Experimental: The height of the green fluorescent signal bars indicate different intensities based on the level of exon skipping that occurs in the nucleus of HeLa-654 cells, whether the cells are treated or untreated with test compounds. The signal intensity or size of the bar also corresponds to the effectiveness of cellular uptake (that is, delivery into the cell). […] The various treatment regimens include continuous treatment of HeLa-654 cells over time or pulse-chase treatments where a test compound is incubated with cells and then after a period of time (3 hours) is washed away from the cells and fresh, test compound-free media is added.
Results: The baseline activity of unconjugated PMO and untreated cells is shown. The peptide/PMO (PPMO) conjugates of the present disclosure all show greater cellular uptake than: 1) unconjugated PMO, and 2) untreated cells (which reveal the green fluorescent background signal). This difference in fluorescence intensity between the peptide/PMO conjugates of the present invention and the background or unconjugated-PMO indicates significant pharmacological activity of the stapled peptide/PMO conjugates.

PPMO 3: (i, i+4) hexafluorobenzene-stapled peptide-PMO conjugate, sequence SEQ ID NO: 9 (GCTATTACCTTAACCCAG; all phosphorodiamidate morpholino (PMO); stapled cell-penetrating peptide conjugated to PMO)
Mean FL1-H (mean fluorescence intensity of e-GFP): 123,401.08

From patent US11672871B2, “Peptide oligonucleotide conjugates” (Sarepta Therapeutics, Inc., priority 2015, dated 2023)
